Data reported in PMC9974468 (Proceedings of the National Academy of Sciences of the …, 2023).

Assays:
Type in all cases: binding
[1] = target: FGFR2K (FGFR2 kinase domain) (Homo sapiens, UniProt P21802, C491A); assay: NMR titration, 1H/[…] HMQC chemical shift perturbation
[2] = target: FGFR2K V564E^0Y (FGFR2 kinase domain) (Homo sapiens, UniProt P21802, C491A/V564E/Y466F/Y586L/Y588P/Y656F/Y657F); assay: NMR titration, 1H/[…] methyl HMQC chemical shift perturbation
[3] = target: FGFR2K WT^0Y (FGFR2 kinase domain) (Homo sapiens, UniProt P21802, C491A/Y466F/Y586L/Y588P/Y656F/Y657F); assay: as above
[4] = target: FGFR2K V564I^0Y (FGFR2 kinase domain) (Homo sapiens, UniProt P21802, C491A/V564I/Y466F/Y586L/Y588P/Y656F/Y657F); assay: as above
Sequence of FGFR2K V564I^0Y (FGFR2 kinase domain) (P21802 458-768 Y466F/C491A/V564I/Y586L/Y588P/Y656F/Y657F): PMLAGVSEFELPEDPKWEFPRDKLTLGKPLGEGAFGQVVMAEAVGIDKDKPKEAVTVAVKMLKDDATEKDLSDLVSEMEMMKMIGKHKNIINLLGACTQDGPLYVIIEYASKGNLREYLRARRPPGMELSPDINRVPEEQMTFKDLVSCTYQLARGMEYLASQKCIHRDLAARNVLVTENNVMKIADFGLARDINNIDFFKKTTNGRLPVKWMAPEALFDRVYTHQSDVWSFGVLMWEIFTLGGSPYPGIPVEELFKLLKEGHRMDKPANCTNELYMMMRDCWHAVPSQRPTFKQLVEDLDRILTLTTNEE

Sequence of FGFR2K V564E^0Y (FGFR2 kinase domain) (P21802 458-768 Y466F/C491A/V564E/Y586L/Y588P/Y656F/Y657F): as the sequence (P21802 458-768 Y466F/C491A/V564I/Y586L/Y588P/Y656F/Y657F) above, with I107E counted along it
Sequence of FGFR2K (FGFR2 kinase domain) (P21802 458-768 C491A): as the sequence (P21802 458-768 Y466F/C491A/V564I/Y586L/Y588P/Y656F/Y657F) above, with F9Y, I107V, L129Y, P131Y, F199Y, F200Y counted along it
Sequence of FGFR2K WT^0Y (FGFR2 kinase domain) (P21802 458-768 Y466F/C491A/Y586L/Y588P/Y656F/Y657F): as the sequence (P21802 458-768 Y466F/C491A/V564I/Y586L/Y588P/Y656F/Y657F) above, with I107V counted along it

Row | Kd [2] | Kd [3] | Kd [4] | SMILES | Kd [1]
1 | – | – | – | Nc1ncnc2c1ncn2[C@@H]1O[C@H](COP(=O)(O)OP(=O)(O)CP(=O)(O)O)[C@@H](O)[C@H]1O [AMP-PCP] | 2900 ± 100 µM
2 | 140 ± 20 µM | 450 ± 70 µM | 280 ± 30 µM | Nc1ncnc2c1ncn2[C@@H]1O[C@H](COP(=O)(O)OP(=O)(O)OP(=O)(O)O)[C@@H](O)[C@H]1O [ATP] | –
